Source: patent publication US8877748B2, “Heterocyclic fused anthraquinone derivatives, manufacturing method and pharmaceutical composition using thereof” (National Defense Medical Center, priority 2012, dated 2014)

Assays:
T-47D = assay: NCI one-dose screening, breast cancer T-47D; type: cell-based, human; details: T-47D
M14 = assay: NCI one-dose screening, melanoma M14; type: cell-based, human; details: M14, 10 μM
SN12C = assay: NCI one-dose screening, renal cancer SN12C; type: cell-based, human; details: SN12C
DU145 = assay: NCI one-dose screening, prostate cancer DU145; type: cell-based, human; details: DU145, 10 μM
SF-539 = assay: NCI one-dose screening, CNS cancer SF-539; type: cell-based, human; details: SF-539, 10 μM
MOLT-4 = assay: NCI one-dose screening, leukemia MOLT-4; type: cell-based, human; details: MOLT-4, 10 μM
NCI-H322M = assay: NCI one-dose screening, non-small cell lung cancer NCI-H322M; type: cell-based, human; details: Non-small cell lung cancer, NCI-H322M, 10 μM
SK-MEL-5 = assay: NCI one-dose screening, melanoma SK-MEL-5; type: cell-based, human; details: SK-MEL-5, 10 μM
MCF7 = assay: NCI one-dose screening, breast cancer MCF7; type: cell-based, human; details: MCF7, 10 μM
KM12 = assay: NCI one-dose screening, colon cancer KM12; type: cell-based, human; details: KM12, 10 μM
[1] = tested on: PC-3 prostate cancer cell line; assay: SRB assay cell viability, PC-3 prostate cancer cell line; type: cell-based, human; details: Homo sapiens, PC-3 prostate cancer cell line, Table II prints no unit, μM printed, read-out: SRB assay: 50% inhibition of cancer cell proliferation of sample concentration (IC50) of PC-3 prostate cancer cell line
MDA, -MB-435 = assay: NCI one-dose screening, breast cancer MDA, -MB-435; type: cell-based, human; details: Melanoma, MDA-MB-435, 10 μM
SNB-19 = assay: NCI one-dose screening, CNS cancer SNB-19; type: cell-based, human; details: SNB-19, 10 μM
OVCAR-5 = assay: NCI one-dose screening, ovarian cancer OVCAR-5; type: cell-based, human; details: OVCAR-5, 10 μM
CCRF-CEM = assay: NCI screening platform one-dose single concentration screening, leukemia CCRF-CEM; type: cell-based, human; details: CCRF-CEM
UO-31 = assay: NCI one-dose screening, renal cancer UO-31; type: cell-based, human; details: UO-31, 10 μM
LOX IMVI = assay: NCI one-dose screening, melanoma LOX IMVI; type: cell-based, human; details: LOX IMVI
MDA-MB-468 = assay: NCI one-dose screening, breast cancer MDA-MB-468; type: cell-based, human; details: MDA-MB-468, 10 μM
OVCAR-3 = assay: NCI one-dose screening, ovarian cancer OVCAR-3; type: cell-based, human; details: OVCAR-3, 10 μM
SR = assay: NCI one-dose screening, leukemia SR; type: cell-based, human; details: SR
HCT-15 = assay: NCI one-dose screening, colon cancer HCT-15; type: cell-based, human; details: HCT-15, 10 μM
NCI-H460 = assay: NCI one-dose screening, non-small cell lung cancer NCI-H460; type: cell-based, human; details: NCI-H460, 10 μM
PC-3 = assay: NCI one-dose screening, prostate cancer PC-3; type: cell-based, human; details: PC-3, 10 μM
COLO 205 = assay: NCI one-dose screening, colon cancer COLO 205; type: cell-based, human; details: COLO 205, 10 μM
NCI-H23 = assay: NCI one-dose screening, non-small cell lung cancer NCI-H23; type: cell-based, human; details: NCI-H23, 10 μM
ACHN = assay: NCI one-dose screening, renal cancer ACHN; type: cell-based, human; details: ACHN
NCl/ADR-RES = assay: NCI one-dose screening, breast cancer NCl/ADR-RES; type: cell-based, human; details: Ovarian cancer, NCI/ADR-RES
BT-549 = assay: NCI one-dose screening, breast cancer BT-549; type: cell-based, human; details: BT-549, 10 μM
NCI-H226 = assay: NCI one-dose screening, non-small cell lung cancer NCI-H226; type: cell-based, human; details: NCI-H226, 10 μM
OVCAR-8 = assay: NCI one-dose screening, ovarian cancer OVCAR-8; type: cell-based, human; details: OVCAR-8, 10 μM
HOP-62 = assay: NCI one-dose screening, non-small cell lung cancer HOP-62; type: cell-based, human; details: HOP-62, 10 μM
human tumor cell lines = assay: NCI one-dose screening, mean, delta and range of growth percent over all cell lines tested; type: cell-based; details: for Growth Percent (10 μM), Delta: Delta over all cell lines tested; for Growth Percent (10 μM), Mean: Mean over all cell lines tested; for Growth Percent (10 μM), Range: Range over all cell lines tested
MDA-MB-231/ATCC = assay: NCI one-dose screening, breast cancer MDA-MB-231/ATCC; type: cell-based, human; details: MDA-MB-231/ATCC
UACC-257 = assay: NCI one-dose screening, melanoma UACC-257; type: cell-based, human; details: UACC-257, 10 μM
HCC-2998 = assay: NCI one-dose screening, colon cancer HCC-2998; type: cell-based, human; details: HCC-2998, 10 μM
786-O = assay: NCI one-dose screening, renal cancer 786-O; type: cell-based, human; details: 786-0, 10 μM
RXF, 393 = assay: NCI one-dose screening, renal cancer RXF, 393; type: cell-based, human; details: RXF 393, 10 μM
CAKI-1 = assay: NCI one-dose screening, renal cancer CAKI-1; type: cell-based, human; details: CAKI-1, 10 μM
SK-MEL-28 = assay: NCI one-dose screening, melanoma SK-MEL-28; type: cell-based, human; details: SK-MEL-28, 10 μM
SNB-75 = assay: NCI one-dose screening, CNS cancer SNB-75; type: cell-based, human; details: SNB-75, 10 μM
HS 578-T = assay: NCI one-dose screening, breast cancer HS 578-T; type: cell-based, human; details: Breast cancer, HS 578T, 10 μM
A549/ATCC = assay: NCI one-dose screening, non-small cell lung cancer A549/ATCC; type: cell-based, human; details: A549/ATCC
HCT-116 = assay: NCI one-dose screening, colon cancer HCT-116; type: cell-based, human; details: HCT-116, 10 μM

CC(C)Sc1cc2c(c3nsnc13)C(=O)c1ccccc1C2=O [C18, 4-(isopropylthio)anthra[2,1-c][1,2,5] thiadiazol-6,11-dione]
Growth Percent (10 μM) (T-47D): −24.37%
Growth Percent (10 μM) (M14): −31.54%
Growth Percent (10 μM) (SN12C): −28.62%
Growth Percent (10 μM) (DU145): 6.66%
Growth Percent (10 μM) (SF-539): −47.01%
Growth Percent (10 μM) (MOLT-4): −54.56%
Growth Percent (10 μM) (NCI-H322M): −0.80%
Growth Percent (10 μM) (SK-MEL-5): −99.20%
Growth Percent (10 μM) (MCF7): −68.82%
Growth Percent (10 μM) (KM12): 19.33%
IC50 [1]: 1.15 µM
Growth Percent (10 μM) (MDA, -MB-435): −79.28%
Growth Percent (10 μM) (SNB-19): 21.85%
Growth Percent (10 μM) (OVCAR-5): −27.85%
Growth Percent (10 μM) (CCRF-CEM): −45.05%
Growth Percent (10 μM) (UO-31): −28.43%
Growth Percent (10 μM) (LOX IMVI): −21.59%
Growth Percent (10 μM) (MDA-MB-468): −78.76%
Growth Percent (10 μM) (OVCAR-3): −60.32%
Growth Percent (10 μM) (SR): −47.97%
Growth Percent (10 μM) (HCT-15): 15.31%
Growth Percent (10 μM) (NCI-H460): 4.92%
Growth Percent (10 μM) (PC-3): −13.43%
Growth Percent (10 μM) (COLO 205): 102.47%
Growth Percent (10 μM) (NCI-H23): −42.19%
Growth Percent (10 μM) (ACHN): 0.80%
Growth Percent (10 μM) (NCl/ADR-RES): −24.93%
Growth Percent (10 μM) (BT-549): 10.84%
Growth Percent (10 μM) (NCI-H226): 10.21%
Growth Percent (10 μM) (OVCAR-8): −22.64%
Growth Percent (10 μM) (HOP-62): 13.18%
Growth Percent (10 μM), Delta (human tumor cell lines): 78.36%
Growth Percent (10 μM), Mean (human tumor cell lines): −21.64%
Growth Percent (10 μM), Range (human tumor cell lines): 202.47%
Growth Percent (10 μM) (MDA-MB-231/ATCC): −35.94%
Growth Percent (10 μM) (UACC-257): −91.69%
Growth Percent (10 μM) (HCC-2998): 21.00%
Growth Percent (10 μM) (786-O): 12.37%
Growth Percent (10 μM) (RXF, 393): 13.64%
Growth Percent (10 μM) (CAKI-1): −5.68%
Growth Percent (10 μM) (SK-MEL-28): −8.32%
Growth Percent (10 μM) (SNB-75): 9.12%
Growth Percent (10 μM) (HS 578-T): −9.16%
Growth Percent (10 μM) (A549/ATCC): −8.14%
Growth Percent (10 μM) (HCT-116): −36.70%

O=C1c2ccccc2C(=O)c2c1cc(N1CCCC1)c1nsnc21 [C7, 4-(pyrrolidine-1-yl)anthra-[2,1-c][1,2,5] thiadiazol-6,11-dione]
Growth Percent (10 μM) (T-47D): 78.19%
Growth Percent (10 μM) (M14): 94.61%
Growth Percent (10 μM) (SN12C): 89.82%
Growth Percent (10 μM) (DU145): 105.08%
Growth Percent (10 μM) (SF-539): 97.27%
Growth Percent (10 μM) (MOLT-4): 92.84%
Growth Percent (10 μM) (NCI-H322M): 82.34%
Growth Percent (10 μM) (SK-MEL-5): 31.12%
Growth Percent (10 μM) (MCF7): 59.71%
Growth Percent (10 μM) (KM12): 95.18%
IC50 [1]: > 15 µM
Growth Percent (10 μM) (MDA, -MB-435): 105.87%
Growth Percent (10 μM) (SNB-19): 90.45%
Growth Percent (10 μM) (OVCAR-5): 111.75%
Growth Percent (10 μM) (CCRF-CEM): 86.62%
Growth Percent (10 μM) (UO-31): 41.64%
Growth Percent (10 μM) (LOX IMVI): 69.55%
Growth Percent (10 μM) (MDA-MB-468): 84.32%
Growth Percent (10 μM) (OVCAR-3): 86.97%
Growth Percent (10 μM) (SR): 84.23%
Growth Percent (10 μM) (HCT-15): 61.25%
Growth Percent (10 μM) (NCI-H460): 89.11%
Growth Percent (10 μM) (PC-3): 71.01%
Growth Percent (10 μM) (COLO 205): 82.13%
Growth Percent (10 μM) (NCI-H23): 59.74%
Growth Percent (10 μM) (ACHN): 82.97%
Growth Percent (10 μM) (NCl/ADR-RES): 86.36%
Growth Percent (10 μM) (BT-549): 86.83%
Growth Percent (10 μM) (NCI-H226): 78.66%
Growth Percent (10 μM) (OVCAR-8): 82.12%
Growth Percent (10 μM) (HOP-62): 79.16%
Growth Percent (10 μM), Delta (human tumor cell lines): 54.57%
Growth Percent (10 μM), Mean (human tumor cell lines): 85.69%
Growth Percent (10 μM), Range (human tumor cell lines): 109.89%
Growth Percent (10 μM) (MDA-MB-231/ATCC): 95.23%
Growth Percent (10 μM) (UACC-257): 84.14%
Growth Percent (10 μM) (HCC-2998): 104.58%
Growth Percent (10 μM) (786-O): 96.67%
Growth Percent (10 μM) (RXF, 393): 97.02%
Growth Percent (10 μM) (CAKI-1): 70.65%
Growth Percent (10 μM) (SK-MEL-28): 99.46%
Growth Percent (10 μM) (SNB-75): 94.52%
Growth Percent (10 μM) (HS 578-T): 101.62%
Growth Percent (10 μM) (A549/ATCC): 63.51%
Growth Percent (10 μM) (HCT-116): 78.67%
